Data from US7112602B2, “Methods of treating undesired angiogenesis with 2-methyl-EM-138” (The Children's Medical Center Corporation, priority 1998, dated 2006).
Marks after values point to notes of the source that are not given here.

What was measured:
[1] = test system: B16-BL6 melanoma cells; assay: B16-BL6 melanoma pulmonary metastasis model, intraperitoneal treatment; format: in vivo, C57B1/6 mice; conditions: for T/C (ratio of lung metastases of treated vs. control animals) / IC50 (50% inhibition of surface metastasis) / angiogenesis inhibitory activity (comparison in words) / Mean Number of Pulmonary Metastases / % Inhibition: i.p.; for T/C (ratio of lung metastases of treated vs. control animals): 0.4 mmol/kg in 2.8% DMSO; for T/C (ratio of lung metastases of treated vs. control animals) / % Inhibition: from 72 hours after tumor cells, day 14; for IC50 (50% inhibition of surface metastasis): varying doses, average of three experiments, 7-R-(+) tested once at each dose, up to 0.8 mmol/kg; for anti-tumor activity (summary in words): summary of Tables 1 and 2, at the tested doses; for angiogenesis inhibitory activity (comparison in words): B16-BL6 metastasis studies; for Mean Number of Pulmonary Metastases / % Inhibition: 1.0 ml of 5.0 mg/ml in 2.8% DMSO; for Mean Number of Pulmonary Metastases: four times a day from 72 hours after tumor cells, surface lung metastases counted day 14; for % Inhibition: versus DMSO control, p < 0.01
Description: B16-BL6 melanoma cells (5×10^4) were injected intravenously into the tail veins of C57B1/6 mice. The mice were given intraperitoneal (i.p.) treatments of either 1.0 ml 2.8% DMSO alone (control), 1.0 ml (5.0 mg/ml 2.8% DMSO) 2-phthalimidinoglutaric acid (EM-138) in DMSO, or 1.0 ml (5.0 mg/ml 2.8%) 2-methyl-2-phthalimidinoglutaric acid (2-Me-EM-138) in DMSO four times a day beginning 72 hours after injection of the tumor cells. Fourteen days after tumor cell inoculation, the lungs were removed from the mice and the surface pulmonary metastases were counted.
B16-BL6 melanoma cells (5×10^4) were injected intravenously into the tail veins of C57B1/6 mice. The mice were given intraperitoneal (i.p.) treatments of either 1.0 ml 2.8% DMSO alone (control), 1.0 ml (5.0 mg/ml) DL-2-methyl-2-phthalimidinoglutaric acid (racemate) in 2.8% DMSO, 1.0 ml (5.0 mg/ml) (R)-(+)-2-methyl-2-phthalimidinoglutaric acid (JS-2-13-P1) in 2.8% DMSO, or (S)-(−)-2-methyl-2-phthalimidinoglutaric acid (JS-2-13-P2) in 2.8% DMSO four times a day beginning 72 hours after injection of the tumor cells. Fourteen days after tumor cell inoculation, the lungs were removed from the mice and the surface pulmonary metastases were counted.
B16-BL6 melanoma cells (5×10^4) were injected intravenously into the tail veins of C57B1/6 mice. The mice were given intraperitoneal (i.p.) treatments of one of the following solutions four times a day beginning 72 hours after injection of the tumor cells. [drawing 4] • 1.0 ml of thalidomide in 2.8% DMSO • 1.0 ml of 3′-hydroxy-2-phthalimidinoglutaric acid in 2.8% DMSO (compound 5a) • 1.0 ml of 4′-hydroxy-2-phthalimidinoglutaric acid in 2.8% DMSO (compound 5b) • 1.0 ml of 2-phthalimidinoglutaric acid (EM-138) in 2.8% DMSO (compound 5c) • 1.0 ml of DL-2-methyl-2-phthalimidinoglutaric acid (racemate) in 2.8% DMSO (compound 7) • 1.0 ml of (R)-(+)-2-methyl-2-phthalimidinoglutaric acid (JS-2-13-P1) in 2.8% DMSO (compound 7-R-(+)) • 1.0 ml of (S)-(−)-2-methyl-2-phthalimidinoglutaric acid (JS-2-13-P2) in 2.8% DMSO (compound 7-S-(−))
A dose of 0.4 mmol/kg was used for each compound tested. Fourteen days after tumor cell inoculation, the lungs were removed from the mice and the surface pulmonary metastases were counted.
This experiment was repeated at varying doses. The in the following table represent the average values for three of the experiment.

[2] = test system: vascular endothelial cell proliferation; conditions: endothelial versus tumor cell proliferation in vitro; cited from earlier work
[3] = Resistance to hydrolysis; format: physicochemical; conditions: compared with thalidomide
[4] = Racemization of enantiomers; format: physicochemical
[5] = test system: B16-BL6 melanoma cells; assay: B16-BL6 melanoma pulmonary metastasis model, oral (gavage) treatment; format: in vivo, C57B1/6 mice
Description: B16-BL6 melanoma cells (5×10^4) were injected intravenously into the tail veins of C57B1/6 mice. Three days later, the mice received a gavage treatment with 0.8 mmol/kg of 2-phthalimidinoglutaric acid (EM-138). The mice received either a single treatment, five treatments on alternate days, or one treatment every day for eleven days. Fourteen days after tumor cell inoculation, the lungs were removed from the mice and the surface pulmonary metastases were counted. The values shown are the mean of 5 mice per group. The bars on the graph represent the standard deviation.
B16-BL6 melanoma cells (5×10^4) were injected intravenously into the tail veins of C57B1/6 mice. The mice were given a single oral treatment of 2-phthalimidinoglutaric acid (EM-138) of 0.8 mmol/kg. The treatment was initiated one day prior to tumor cells or on day 1, 2, 3, 5, or 7 after tumor cells. Fourteen days after tumor cell inoculation, the lungs were removed from the mice and the surface pulmonary metastases were counted. The values shown are the mean of 5 mice per group. The bars on the graph represent the standard deviation.

Structure (SMILES) | T/C (ratio of lung metastases of treated vs. control animals) [1] | IC50 (50% inhibition of surface metastasis) [1] | anti-tumor activity (summary in words) [1] | other results
O=C(O)CCC(C(=O)O)N1Cc2c(O)cccc2C1=O (centres unmarked) [Compound 5b, 4′-hydroxy-2-phthalimidinoglutaric acid] | 0.9 |  |  | 
O=C(O)CCC(C(=O)O)N1C(=O)c2ccccc2C1O (centres unmarked) [Compound 5a, 3′-hydroxy-2-phthalimidinoglutaric acid] | 0.95 |  |  | 
C[C@@](CCC(=O)O)(C(=O)O)N1Cc2ccccc2C1=O [7-R-(+), (R)-(+)-2-methyl-2-phthalimidinoglutaric acid] | 0.7 | No activity^b | little or no activity | 
CO[C@@H]1[C@H](OC(=O)NC(=O)CCl)CC[C@]2(CO2)[C@H]1[C@@]1(C)O[C@@H]1CC=C(C)C [AGM-1470] |  |  |  | half-maximal inhibition of endothelial cell proliferation at lower concentration than tumor cell proliferation [2]: 4 logs
O=C1CCC(N2C(=O)c3ccccc3C2=O)C(=O)N1 (centres unmarked) [Thalidomide, thalidomide, reference compound] | 0.9 | 3.2^a mmol/kg |  | 
CC(CCC(=O)O)(C(=O)O)N1Cc2ccccc2C1=O (racemic) [Compound 7, DL-2-methyl-2-phthalimidinoglutaric acid] | 0.25 | 0.2^a mmol/kg | considerably greater inhibitory activity than thalidomide | angiogenesis inhibitory activity (comparison in words) [1]: as potent an inhibitor of angiogenesis as EM-138; Mean Number of Pulmonary Metastases [1]: 84; % Inhibition [1]: 60%
O=C(O)CCC(C(=O)O)N1Cc2ccccc2C1=O (centres unmarked) [Compound 5c, 2-phthalimidinoglutaric acid] | 0.2 | 0.2^a mmol/kg | considerably greater inhibitory activity than thalidomide | resistance to hydrolysis [3]: relatively resistant to hydrolysis; racemization of enantiomers [4]: readily racemize; Mean Number of Pulmonary Metastases [1]: 85; % Inhibition [1]: 60%; inhibition of metastasis ([5]; dose of 0.8 mmol/kg/day): greater than 90%; inhibition of metastasis ([5]; single dose): 50%
C[C@](CCC(=O)O)(C(=O)O)N1Cc2ccccc2C1=O [7-S-(−), (S)-(−)-2-methyl-2-phthalimidinoglutaric acid] | 0.15 | 0.1^a mmol/kg |  | angiogenesis inhibitory activity (comparison in words) [1]: greater angiogenesis inhibitory activity than does the (R) isomer
